Measured values: patent publication US12121522B2, “Methods of treating cancer with an mTOR inhibitor” (Revolution Medicines, Inc., priority 2022, dated 2024)

Legend:
[1] = system: TOV21G ovarian cancer CDX; test: TOV21G ovarian cancer xenograft; assay type: in vivo, mouse
Protocol: FIGS. 2A-2D show Antitumor Activity of RMC-5552 in the TOV21G Cell Line-Derived Xenograft Model of Human Ovarian Cancer Following Once-Weekly Administration. Abbreviations: ANOVA=analysis of variance; IP=intraperitoneal; QW=once weekly. […] Each animal represented as a separate bar. Number of animals per group=10, or n=5 in 3 mg/kg dosing arm. Numbers indicate number of regressions at respective doses (defined as >10% reduction in tumor volume from starting volume) in each group. […] FIG. 2D reflects Kaplan-Meier survival analysis of the time for TOV21G tumors to regrow to a tumor volume of 300 mm^3 following treatment cessation. Median time to regrowth in RMC-5552 3 mg/kg arm is 61 days, while 10 mg/kg dose survival time was undefined, extending past 73 days. Dotted horizontal line indicates time to regrowth of 50% of the tumors in a treatment.
(§1) The antitumor activity of RMC-5552 as a single agent against tumors predicted to be dependent on the mTOR pathway and/or bearing specific PI3K/mTOR pathway-activating mutations (i.e., PIK3CA^mut, phosphatase and tensin homolog [PTEN^LOF], or co-mutation of both and tuberous sclerosis complex [TSC^LOF]) was evaluated in selected CDX and/or PDX models
(§2) Table 1. RMC-5552 was administered IP once weekly at 1, 3, 10, and 30 mg/kg. In the breast cancer MCF7 PIK3CA^[…] model, a higher dose of 50 mg/kg once weekly and an alternate dose regimen of 30 mg/kg every 10 days were also evaluated.

[2] = system: murine models of mTORC1-activated cancers; conditions: mouse, in vivo
Protocol: as §1

[3] = system: HN009 HNSCC PDX; test: HN009 HNSCC patient-derived xenograft; assay type: in vivo, mouse
From the text: FIGS. 3A-3B show Antitumor Activity of RMC-5552 in the HN009 Patient-Derived Xenograft Model of Human HNSCC Following Once-Weekly Administration. Abbreviations: ANOVA=analysis of variance; IP=intraperitoneal; QW=once weekly. […] Each animal represented as a separate bar. The number of tumor regressions out of total mice in that group is shown (tumor regression defined as >10% reduction in tumor volume from starting volume) in each group.
as §1, §2

[4] = Clinical safety (TEAEs, TRAEs, SAEs, DLTs), study RMC-5552-001
From the text: RMC-5552 is currently being evaluated as a monotherapy in a FIH, dose-escalation, Phase 1/1b study (RMC-5552-001) in adult subjects with advanced relapsed/refractory solid tumors (see Example 3 for additional study protocol details.) The purpose of this study is to evaluate safety, tolerability, preliminary efficacy, PK, and pharmacodynamics of RMC-5552 monotherapy. The primary objective is to characterize the safety and tolerability of RMC-5552 monotherapy and to define the MTD and the Recommended Phase 2 Dose (RP2DS) and schedule for RMC-5552 monotherapy in subjects with relapsed/refractory solid tumors.
Adverse events (AEs) were based on the Medical Dictionary for Regulatory Activities (MedDRA) preferred terms and included the grouped preferred term of stomatitis/mucositis using mucosal inflammation, oral pain, and stomatitis. […] Of note, the grouped term of stomatitis/mucositis comprised events of (based on MedDRA PT) mucosal inflammation, oral pain, and stomatitis.
In the Dose-Escalation Phase, assessment of safety and tolerability will be the primary endpoints and will be directly measured by the incidence of dose-limiting toxicities (DLTs), treatment-emergent adverse events (TEAEs), and serious adverse events (SAEs). The starting dose of RMC-5552 will be 1.6 mg once weekly (QW) via intravenous (IV) infusion. The first cycle of treatment (i.e., first 21 days after treatment initiation) constitutes the DLT evaluation period.
A DLT is defined as a toxicity that is considered at least possibly related to study intervention, occurs within the first 21 days of treatment initiation (i.e., during Cycle 1), and meets at least 1 of the following criteria (with severity graded according to Common Terminology Criteria for Adverse Events [CTCAE] v5): […]

[5] = 10 mg QW (2-hour infusion) 21-Day cycle (N = 5)

CO[C@H]1C[C@@H]2CC[C@@H](C)[C@@](O)(O2)C(=O)C(=O)N2CCCC[C@H]2C(=O)O[C@H]([C@H](C)C[C@@H]2CC[C@@H](OC(=O)NCCOCCOCCOCCOCCOCCOCCOCCOCCC(=O)N3CCc4cc(Cn5nc(-c6ccc7oc(N)nc7c6)c6c(N)ncnc65)ccc4C3)[C@H](OC)C2)C[C@@H](O)[C@H](C)/C=C(\C)[C@@H](O)[C@@H](OC)C(=O)[C@H](C)C[C@H](C)/C=C/C=C/C=C/1C [RMC-5552]
tumor regression ([1]; 3 mg/kg IP QW): 34% regression | median time to regrowth to 300 mm^3 after treatment cessation ([1]; 3 mg/kg QW IP, 4 doses): 61 days | tumor regression ([1]; 10 mg/kg IP QW): 61% regression | time to regrowth to 300 mm^3 after treatment cessation (undefined) ([1]; 10 mg/kg QW IP, 4 doses): > 73 days | tolerability of doses and regimens [2]: generally well-tolerated | TGI ([3]; 3 mg/kg IP QW): 91% | tumor regression ([3]; 10 mg/kg IP QW): 17% regression | Treatment-emergent SAE Wound infection, number (%) of subjects ([4]; 1.6 mg QW 21-Day cycle (N = 2)): 0 subjects | Treatment-emergent SAE Wound infection, number (%) of subjects ([4]; 3 mg QW 21-Day cycle (N = 3)): 0 subjects | Treatment-emergent SAE Wound infection, number (%) of subjects ([4]; 6 mg QW 21-Day cycle (N = 12)): 0 subjects | Treatment-emergent SAE Wound infection, number (%) of subjects ([4]; 8 mg QW 21-Day cycle (N = 15)): 1 subjects | Treatment-emergent SAE Urinary tract infection, number (%) of subjects [4, 5]: 0 subjects | Treatment-emergent SAE Wound infection, number (%) of subjects [4, 5]: 0 subjects | Treatment-emergent SAE Wound infection, number (%) of subjects ([4]; 12 mg QW 21-Day cycle (N = 2)): 0 subjects | Treatment-emergent SAE Urinary tract infection, number (%) of subjects ([4]; Overall (N = 39)): 1 subjects | Treatment-emergent SAE Wound infection, number (%) of subjects ([4]; Overall (N = 39)): 1 subjects | DLT rate ([4]; human, in vivo): (3.0%) | Grade ≥3 TEAE: anemia ([4]; human, in vivo): 15.4% | Grade ≥3 TEAE: dysphagia ([4]; human, in vivo): 5.1% | Grade ≥3 TEAE: fatigue ([4]; human, in vivo): 5.1% | Grade ≥3 TEAE: rash (grouped term) ([4]; human, in vivo): 5.1% | Grade ≥3 TEAE: stomatitis/mucositis ([4]; human, in vivo): 10.3% | Grade ≥3 TEAE: urinary tract infection ([4]; human, in vivo): 5.1% | Number of subjects with any SAE (treatment-emergent) ([4]; human, in vivo): 14 subjects | SAEs assessed as treatment-related by investigators ([4]; human, in vivo): No SAEs were assessed as treatment-related | TEAE any grade: abdominal pain ([4]; human, in vivo): 20.5% | TEAE any grade: anemia ([4]; human, in vivo): 25.6% | TEAE any grade: decreased appetite ([4]; human, in vivo): 43.6% | TEAE any grade: diarrhea ([4]; human, in vivo): 23.10% | TEAE any grade: dyspnea ([4]; human, in vivo): 28.20% | TEAE any grade: fatigue ([4]; human, in vivo): 61.5% | TEAE any grade: headache ([4]; human, in vivo): 20.5% | TEAE any grade: nausea ([4]; human, in vivo): 41.0% | TEAE any grade: rash (grouped term) ([4]; human, in vivo): 28.20% | TEAE any grade: vomiting ([4]; human, in vivo): 30.80% | TRAE: decreased appetite ([4]; human, in vivo): 25% | TRAE: diarrhea ([4]; human, in vivo): 25% | TRAE: fatigue ([4]; human, in vivo): 25% | TRAE: mucositis/stomatitis ([4]; human, in vivo): 35% | TRAE: nausea ([4]; human, in vivo): 25% | Treatment-emergent SAE Acute kidney injury, number (%) of subjects ([4]; human, in vivo): 1 subjects | Treatment-emergent SAE Anaemia, number (%) of subjects ([4]; human, in vivo): 1 subjects | Treatment-emergent SAE Anemia along with occlusion, number (%) of subjects ([4]; human, in vivo): 1 subjects | Treatment-emergent SAE Atrial fibrillation, number (%) of subjects ([4]; human, in vivo): 1 subjects | Treatment-emergent SAE Dehydration, number (%) of subjects ([4]; human, in vivo): 1 subjects | Treatment-emergent SAE Dyspnea, number (%) of subjects ([4]; human, in vivo): 1 subjects | Treatment-emergent SAE Embolism, number (%) of subjects ([4]; human, in vivo): 1 subjects | Treatment-emergent SAE Face Oedema, number (%) of subjects ([4]; human, in vivo): 1 subjects | Treatment-emergent SAE Failure to Thrive, number (%) of subjects ([4]; human, in vivo): 1 subjects | Treatment-emergent SAE Fatigue, number (%) of subjects ([4]; human, in vivo): 1 subjects | Treatment-emergent SAE Hypotension, number (%) of subjects ([4]; human, in vivo): 1 subjects | Treatment-emergent SAE Large intestinal obstruction, number (%) of subjects ([4]; human, in vivo): 1 subjects | Treatment-emergent SAE Lower gastrointestinal hemorrhage, number (%) of subjects ([4]; human, in vivo): 1 subjects | Treatment-emergent SAE Oedema peripheral, number (%) of subjects ([4]; human, in vivo): 1 subjects | Treatment-emergent SAE Pain in extremity, number (%) of subjects ([4]; human, in vivo): 1 subjects | Treatment-emergent SAE Pleural effusion, number (%) of subjects ([4]; human, in vivo): 1 subjects | Treatment-emergent SAE Pneumonia aspiration, number (%) of subjects ([4]; human, in vivo): 1 subjects | Treatment-emergent SAE Pneumonia, number (%) of subjects ([4]; human, in vivo): 1 subjects | Treatment-emergent SAE Pneumothorax, number (%) of subjects ([4]; human, in vivo): 1 subjects | Treatment-emergent SAE Rash maculopapular, number (%) of subjects ([4]; human, in vivo): 1 subjects | Treatment-emergent SAE Rectourethral fistula, number (%) of subjects ([4]; human, in vivo): 1 subjects | Treatment-emergent SAE Small intestinal obstruction, number (%) of subjects ([4]; human, in vivo): 1 subjects | Treatment-emergent SAE Small intestinal perforation, number (%) of subjects ([4]; human, in vivo): 1 subjects | Treatment-emergent SAE Stomatitis/mucositis, number (%) of subjects ([4]; human, in vivo): 1 subjects | Treatment-emergent SAE Vascular occlusion, number (%) of subjects ([4]; human, in vivo): 1 subjects | dose-limiting toxicities ([4]; human, in vivo): no dose-limiting toxicities | drug-related adverse event: decreased appetite ([4]; human, in vivo): 32% | drug-related adverse event: fatigue ([4]; human, in vivo): 41% | drug-related adverse event: nausea ([4]; human, in vivo): 36% | drug-related adverse event: stomatitis/mucositis ([4]; human, in vivo): 41% | drug-related adverse event: vomiting ([4]; human, in vivo): 23% | event of interest: edema peripheral ([4]; human, in vivo): 10.3% | event of interest: hyperglycemia ([4]; human, in vivo): 7.7% | event of interest: rash maculo-papular ([4]; human, in vivo): 17.9% | median duration of resolved stomatitis/mucositis events ([4]; human, in vivo): 12.0 days | median time to first onset of stomatitis/mucositis ([4]; human, in vivo): 12.5 days | n/N (DLT rate) ([4]; human, in vivo): 1/33 | related Grade 4 or 5 adverse events ([4]; human, in vivo): No related Grade 4 or 5 adverse events | treatment-emergent hyperglycemia, patients ([4]; human, in vivo): 6.8%
